From PubChem BioAssay (NCI)
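Five compound concentrations were applied to cells in 96-well plates for 48 hours; endpoints were derived by simple linear interpolation of the resulting dose-response curve. Here, GI50 denotes the concentration required for 50% inhibition of growth. TGI denotes the concentration required for complete inhibition of growth.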

Columns and labels:
Test in all cases: growth of human tumour cells (NCI), 48 h; in the data active = GI50 below about 0.43 µM; inactive = the rest
OVCAR-4 ovarian = tested on: OVCAR-4 ovarian
OVCAR-8 ovarian = tested on: OVCAR-8 ovarian
MDA-MB-468 breast = tested on: MDA-MB-468 breast
MCF7 breast = tested on: MCF7 breast
T-47D breast = tested on: T-47D breast
NCI-H522 lung = tested on: NCI-H522 lung
TK-10 renal = tested on: TK-10 renal
PC-3 prostate = tested on: PC-3 prostate
HCT-116 colon = tested on: HCT-116 colon
EKVX NSCLC = tested on: EKVX NSCLC
SF-295 CNS = tested on: SF-295 CNS
MDA-MB-231 breast = tested on: MDA-MB-231 breast
SK-MEL-28 melanoma = tested on: SK-MEL-28 melanoma
RXF 393 renal = tested on: RXF 393 renal
K-562 leukemia = tested on: K-562 leukemia
DU-145 prostate = tested on: DU-145 prostate
OVCAR-5 ovarian = tested on: OVCAR-5 ovarian
M14 melanoma = tested on: M14 melanoma
SK-MEL-2 melanoma = tested on: SK-MEL-2 melanoma
MALME-3M melanoma = tested on: MALME-3M melanoma
HS 578T breast = tested on: HS 578T breast
SN12C renal = tested on: SN12C renal
UACC-62 melanoma = tested on: UACC-62 melanoma
SNB-75 CNS = tested on: SNB-75 CNS
SK-MEL-5 melanoma = tested on: SK-MEL-5 melanoma
HOP-92 NSCLC = tested on: HOP-92 NSCLC
NCI-H23 lung = tested on: NCI-H23 lung
SW-620 colon = tested on: SW-620 colon
MDA-MB-435 = tested on: MDA-MB-435
RPMI-8226 leukemia = tested on: RPMI-8226 leukemia
HCC-2998 colon = tested on: HCC-2998 colon
SF-268 CNS = tested on: SF-268 CNS
HT29 colon = tested on: HT29 colon
HL-60(TB) leukemia = tested on: HL-60(TB) leukemia
HOP-62 NSCLC = tested on: HOP-62 NSCLC
HCT-15 colon = tested on: HCT-15 colon
KM12 colon = tested on: KM12 colon
SNB-19 CNS = tested on: SNB-19 CNS
SF-539 CNS = tested on: SF-539 CNS
OVCAR-3 ovarian = tested on: OVCAR-3 ovarian
CCRF-CEM leukemia = tested on: CCRF-CEM leukemia
SK-OV-3 ovarian = tested on: SK-OV-3 ovarian
NCI-H460 lung = tested on: NCI-H460 lung
NCI-H226 lung = tested on: NCI-H226 lung
MOLT-4 leukemia = tested on: MOLT-4 leukemia
CAKI-1 renal = tested on: CAKI-1 renal
BT-549 breast = tested on: BT-549 breast
COLO 205 colon = tested on: COLO 205 colon
IGROV1 ovarian = tested on: IGROV1 ovarian
U251 CNS = tested on: U251 CNS
786-0 renal = tested on: 786-0 renal
A549 NSCLC = tested on: A549 NSCLC
UACC-257 melanoma = tested on: UACC-257 melanoma
LOX IMVI melanoma = tested on: LOX IMVI melanoma
ACHN renal = tested on: ACHN renal
NCI/ADR-RES ovarian = tested on: NCI/ADR-RES ovarian
A498 renal = tested on: A498 renal

CN(CCSSCCN1CCOCC1)C(=O)Oc1cc2c(c3ccccc13)[C@H](CCl)CN2C(=O)c1cc2cc(OCCCN3CCC3)ccc2[nH]1
0.0829 µM: TGI (RXF 393 renal)
25 µM: TGI (HT29 colon)
0.0959 µM: TGI (SK-MEL-2 melanoma)
2.67 µM: TGI (K-562 leukemia)
0.0321 µM: TGI (UACC-62 melanoma) | TGI (SK-MEL-5 melanoma)
2.38 µM: TGI (OVCAR-3 ovarian)
0.0108 µM: TGI (SF-295 CNS)
1.1 µM: TGI (HS 578T breast)
1.02 µM: TGI (NCI-H522 lung)
2.98 µM: TGI (DU-145 prostate)
5.81 µM: TGI (TK-10 renal)
active: GI50 (OVCAR-8 ovarian) 0.0247 µM | GI50 (MDA-MB-468 breast) 0.0402 µM | GI50 (MCF7 breast) 0.00752 µM | GI50 (T-47D breast) 0.287 µM | GI50 (NCI-H522 lung) 0.273 µM | GI50 (PC-3 prostate) 0.0396 µM | GI50 (HCT-116 colon) 0.0452 µM | GI50 (EKVX NSCLC) 0.042 µM | GI50 (SF-295 CNS) 0.00304 µM | GI50 (MDA-MB-231 breast) 0.0711 µM | GI50 (SK-MEL-28 melanoma) 0.0291 µM | GI50 (RXF 393 renal) 0.0406 µM | GI50 (K-562 leukemia) 0.0751 µM | GI50 (DU-145 prostate) 0.0119 µM | GI50 (OVCAR-5 ovarian) 0.0675 µM | GI50 (M14 melanoma) 0.0101 µM | GI50 (SK-MEL-2 melanoma) 0.0494 µM | GI50 (MALME-3M melanoma) 0.0481 µM | GI50 (HS 578T breast) 0.178 µM | GI50 (SN12C renal) 0.0649 µM | GI50 (UACC-62 melanoma) 0.00625 µM | GI50 (SNB-75 CNS) 0.038 µM | GI50 (SK-MEL-5 melanoma) 0.00632 µM | GI50 (HOP-92 NSCLC) 0.382 µM | GI50 (NCI-H23 lung) 0.0101 µM | GI50 (SW-620 colon) 0.0464 µM | GI50 (MDA-MB-435) 0.0367 µM | GI50 (HCC-2998 colon) 0.027 µM | GI50 (SF-268 CNS) 0.0244 µM | GI50 (HT29 colon) 0.0699 µM | GI50 (HL-60(TB) leukemia) 0.131 µM | GI50 (HOP-62 NSCLC) 0.00251 µM | GI50 (HCT-15 colon) 0.0574 µM | GI50 (KM12 colon) 0.0306 µM | GI50 (SNB-19 CNS) 0.00665 µM | GI50 (SF-539 CNS) 0.0513 µM | GI50 (OVCAR-3 ovarian) 0.236 µM | GI50 (CCRF-CEM leukemia) 0.102 µM | GI50 (SK-OV-3 ovarian) 0.00867 µM
5.43 µM: TGI (KM12 colon)
5.04 µM: TGI (HCT-116 colon)
2.64 µM: TGI (MCF7 breast)
inactive: GI50 (OVCAR-4 ovarian) 0.615 µM | GI50 (TK-10 renal) 0.971 µM | GI50 (RPMI-8226 leukemia) 0.473 µM
0.0433 µM: TGI (NCI-H23 lung)
0.104 µM: TGI (MDA-MB-435)
1.77 µM: TGI (PC-3 prostate)
1.7 µM: TGI (T-47D breast)
0.136 µM: TGI (OVCAR-8 ovarian)
0.0426 µM: TGI (M14 melanoma)
0.178 µM: TGI (MDA-MB-231 breast)
0.134 µM: TGI (EKVX NSCLC)
1.44 µM: TGI (SN12C renal) | TGI (HOP-92 NSCLC)
2.28 µM: TGI (OVCAR-4 ovarian)
0.849 µM: TGI (SF-268 CNS)
2.7 µM: TGI (SW-620 colon)
0.266 µM: TGI (OVCAR-5 ovarian)
0.127 µM: TGI (SNB-19 CNS)
0.123 µM: TGI (MALME-3M melanoma) | TGI (SF-539 CNS)
5.18 µM: TGI (RPMI-8226 leukemia)
1.4 µM: TGI (HL-60(TB) leukemia)
9.89 µM: TGI (CCRF-CEM leukemia)
0.102 µM: TGI (HCC-2998 colon)
0.0667 µM: TGI (SK-MEL-28 melanoma)
0.0288 µM: TGI (HOP-62 NSCLC)
0.173 µM: TGI (MDA-MB-468 breast) | TGI (SNB-75 CNS)
0.101 µM: TGI (SK-OV-3 ovarian)
0.642 µM: TGI (HCT-15 colon)

CO[C@@H]1CSSC1Cn1nc(-c2ccc(Oc3ccccc3)cc2)c2c(N)ncnc21 (stereo partly specified)
86.5 µM: TGI (MDA-MB-468 breast)
24.6 µM: TGI (SK-OV-3 ovarian)
76.5 µM: TGI (NCI-H460 lung)
4.35 µM: TGI (M14 melanoma)
inactive: GI50 (NCI-H460 lung) 3.43 µM | GI50 (OVCAR-4 ovarian) > 100 µM | GI50 (OVCAR-8 ovarian) > 100 µM | GI50 (MDA-MB-468 breast) 5.18 µM | GI50 (MCF7 breast) 6.87 µM | GI50 (NCI-H226 lung) 39.7 µM | GI50 (MOLT-4 leukemia) 2.24 µM | GI50 (T-47D breast) 6.14 µM | GI50 (NCI-H522 lung) 41.8 µM | GI50 (TK-10 renal) 37.9 µM | GI50 (PC-3 prostate) 58.7 µM | GI50 (HCT-116 colon) 5.36 µM | GI50 (EKVX NSCLC) 7.29 µM | GI50 (SF-295 CNS) 62 µM | GI50 (SK-MEL-28 melanoma) 2.87 µM | GI50 (RXF 393 renal) 50.3 µM | GI50 (K-562 leukemia) 3.6 µM | GI50 (DU-145 prostate) > 100 µM | GI50 (OVCAR-5 ovarian) 51.5 µM | GI50 (M14 melanoma) 1.99 µM | GI50 (SK-MEL-2 melanoma) 22.8 µM | GI50 (MALME-3M melanoma) 62.7 µM | GI50 (HS 578T breast) > 100 µM | GI50 (SN12C renal) > 100 µM | GI50 (UACC-62 melanoma) 14.5 µM | GI50 (CAKI-1 renal) > 100 µM | GI50 (SNB-75 CNS) > 100 µM | GI50 (SK-MEL-5 melanoma) 14.8 µM | GI50 (HOP-92 NSCLC) > 100 µM | GI50 (BT-549 breast) > 100 µM | GI50 (NCI-H23 lung) > 100 µM | GI50 (SW-620 colon) 57.9 µM | GI50 (MDA-MB-435) 3.19 µM | GI50 (RPMI-8226 leukemia) 43.3 µM | GI50 (HCC-2998 colon) 21 µM | GI50 (SF-268 CNS) 8.22 µM | GI50 (HT29 colon) 6.82 µM | GI50 (COLO 205 colon) 53.2 µM | GI50 (IGROV1 ovarian) > 100 µM | GI50 (HL-60(TB) leukemia) 6.13 µM | GI50 (HOP-62 NSCLC) 16.4 µM | GI50 (HCT-15 colon) 33.3 µM | GI50 (U251 CNS) > 100 µM | GI50 (KM12 colon) 8.73 µM | GI50 (786-0 renal) > 100 µM | GI50 (SNB-19 CNS) > 100 µM | GI50 (SF-539 CNS) > 100 µM | GI50 (A549 NSCLC) 13.9 µM | GI50 (UACC-257 melanoma) 16.2 µM | GI50 (LOX IMVI melanoma) 43.9 µM | GI50 (OVCAR-3 ovarian) 63.5 µM | GI50 (ACHN renal) 12.3 µM | GI50 (NCI/ADR-RES ovarian) > 100 µM | GI50 (CCRF-CEM leukemia) 4.29 µM | GI50 (SK-OV-3 ovarian) 3.25 µM | GI50 (A498 renal) 99 µM
21 µM: TGI (SK-MEL-28 melanoma)
> 100 µM: TGI (OVCAR-4 ovarian) | TGI (OVCAR-8 ovarian) | TGI (MCF7 breast) | TGI (NCI-H226 lung) | TGI (T-47D breast) | TGI (NCI-H522 lung) | TGI (TK-10 renal) | TGI (PC-3 prostate) | TGI (HCT-116 colon) | TGI (EKVX NSCLC) | TGI (SF-295 CNS) | TGI (RXF 393 renal) | TGI (K-562 leukemia) | TGI (DU-145 prostate) | TGI (OVCAR-5 ovarian) | TGI (SK-MEL-2 melanoma) | TGI (MALME-3M melanoma) | TGI (HS 578T breast) | TGI (SN12C renal) | TGI (UACC-62 melanoma) | TGI (CAKI-1 renal) | TGI (SNB-75 CNS) | TGI (SK-MEL-5 melanoma) | TGI (HOP-92 NSCLC) | TGI (BT-549 breast) | TGI (NCI-H23 lung) | TGI (SW-620 colon) | TGI (RPMI-8226 leukemia) | TGI (HCC-2998 colon) | TGI (SF-268 CNS) | TGI (HT29 colon) | TGI (COLO 205 colon) | TGI (IGROV1 ovarian) | TGI (HL-60(TB) leukemia) | TGI (HOP-62 NSCLC) | TGI (HCT-15 colon) | TGI (U251 CNS) | TGI (KM12 colon) | TGI (786-0 renal) | TGI (SNB-19 CNS) | TGI (SF-539 CNS) | TGI (A549 NSCLC) | TGI (UACC-257 melanoma) | TGI (LOX IMVI melanoma) | TGI (OVCAR-3 ovarian) | TGI (ACHN renal) | TGI (NCI/ADR-RES ovarian) | TGI (CCRF-CEM leukemia) | TGI (A498 renal)
10.2 µM: TGI (MDA-MB-435)
6.52 µM: TGI (MOLT-4 leukemia)
